Key:
human OATP1B1 = human OATP1B1 (Homo sapiens, UniProt Q9Y6L6); settings: 5 µM; 10 min; 37°C; vs mock cells
Procedure: (§1) OATP1B1-, OATP1B3-, OATP2B1-, NTCP-, OAT1-, and OAT3-transfected HEK293 cells were cultured in DMEM supplemented with 10% FBS, 100 U/mL penicillin-streptomycin at 37°C with 95% relative humidity atmosphere containing 5% CO2. All cells were seeded in 24-well plates at a density of 4 × 10^5 cells/well and cultured for 1–2 days until they reached 80%–90% confluence. Prior to the initiation of uptake studies, the cells were washed twice with HBSS buffer at 37°C. Membrane vesicles were stored at −80°C and thawed at 37°C prior to the initiation of the studies.
(§2) All uptake tests were performed in triplicates. The activities of transporter-transfected HEK293 cells were evaluated using relevant positive substrates and inhibitors. E17G (5 µM, OATP1B1 and OATP1B3), ES (2 µM, OATP2B1), ES (5 µM, OAT3), TCA (10 µM, NTCP), and PAH (20 µM, OAT1) were used as substrates of the transporters. The inhibitors for each transporter were rifampicin (200 µM, OATP1B1 and OATP1B3), erlotinib (10 µM, OATP2B1), CsA (20 µM, NTCP), and probenecid (200 µM, OAT1 and OAT3).
(§3) The cells were washed three times with ice-cold HBSS buffer. […] The total protein concentration was measured using a BCA Protein Assay Kit. The uptake rates of HEK293-OATP1B1, HEK293-OATP1B3, HEK293-OATP2B1, HEK293-NTCP, HEK293-OAT1, HEK293-OAT3, and mock cells were calculated. […]

human OATP1B3 = human OATP1B3 (Homo sapiens, UniProt Q9NPD5); settings: 5 µM; 10 min; 37°C; vs mock cells
Procedure: as §1, §2, §3

human NTCP = biological target: T1, human NTCP (Homo sapiens, UniProt Q14973); assay: Uptake in NTCP-transfected HEK293 cells; settings: 5 µM; 10 min; 37°C; vs mock cells
T1 sequence (Q14973 1-349): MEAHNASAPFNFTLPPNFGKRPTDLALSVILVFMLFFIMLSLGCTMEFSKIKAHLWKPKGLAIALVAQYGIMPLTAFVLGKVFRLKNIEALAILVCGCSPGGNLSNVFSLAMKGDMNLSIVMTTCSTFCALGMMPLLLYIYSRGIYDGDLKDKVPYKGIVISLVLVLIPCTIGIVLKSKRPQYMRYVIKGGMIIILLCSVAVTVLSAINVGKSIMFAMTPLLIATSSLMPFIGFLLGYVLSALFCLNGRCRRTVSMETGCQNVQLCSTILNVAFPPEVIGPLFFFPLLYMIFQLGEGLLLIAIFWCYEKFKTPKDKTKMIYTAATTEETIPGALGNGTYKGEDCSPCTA
Procedure: as §1, §2, §3

[1] = rats; cited from earlier work
MATE1 = settings: cited from earlier work
MATE2-K = settings: cited from earlier work
OATP2B1 = settings: cited from earlier work

Sequence of human OATP1B3 (Q9NPD5 whole entry): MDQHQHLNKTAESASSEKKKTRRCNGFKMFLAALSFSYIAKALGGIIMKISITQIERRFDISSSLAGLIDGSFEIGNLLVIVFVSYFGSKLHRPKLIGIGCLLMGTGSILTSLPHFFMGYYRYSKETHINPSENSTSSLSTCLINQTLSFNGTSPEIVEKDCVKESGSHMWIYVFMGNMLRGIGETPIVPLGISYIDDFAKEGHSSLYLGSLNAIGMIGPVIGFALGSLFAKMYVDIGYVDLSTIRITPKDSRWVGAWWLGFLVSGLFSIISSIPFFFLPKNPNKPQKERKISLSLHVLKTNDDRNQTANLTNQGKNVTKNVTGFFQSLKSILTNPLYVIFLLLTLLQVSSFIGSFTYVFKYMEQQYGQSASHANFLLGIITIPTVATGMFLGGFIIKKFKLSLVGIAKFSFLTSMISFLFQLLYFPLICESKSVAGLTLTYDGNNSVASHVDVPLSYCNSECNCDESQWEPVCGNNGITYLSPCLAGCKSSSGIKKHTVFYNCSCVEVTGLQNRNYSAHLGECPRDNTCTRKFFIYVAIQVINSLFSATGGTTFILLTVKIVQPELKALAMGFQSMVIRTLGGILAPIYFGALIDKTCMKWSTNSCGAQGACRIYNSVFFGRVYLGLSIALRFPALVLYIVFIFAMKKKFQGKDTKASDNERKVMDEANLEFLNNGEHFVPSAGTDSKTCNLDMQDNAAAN
Sequence of human OATP1B1 (Q9Y6L6 whole entry): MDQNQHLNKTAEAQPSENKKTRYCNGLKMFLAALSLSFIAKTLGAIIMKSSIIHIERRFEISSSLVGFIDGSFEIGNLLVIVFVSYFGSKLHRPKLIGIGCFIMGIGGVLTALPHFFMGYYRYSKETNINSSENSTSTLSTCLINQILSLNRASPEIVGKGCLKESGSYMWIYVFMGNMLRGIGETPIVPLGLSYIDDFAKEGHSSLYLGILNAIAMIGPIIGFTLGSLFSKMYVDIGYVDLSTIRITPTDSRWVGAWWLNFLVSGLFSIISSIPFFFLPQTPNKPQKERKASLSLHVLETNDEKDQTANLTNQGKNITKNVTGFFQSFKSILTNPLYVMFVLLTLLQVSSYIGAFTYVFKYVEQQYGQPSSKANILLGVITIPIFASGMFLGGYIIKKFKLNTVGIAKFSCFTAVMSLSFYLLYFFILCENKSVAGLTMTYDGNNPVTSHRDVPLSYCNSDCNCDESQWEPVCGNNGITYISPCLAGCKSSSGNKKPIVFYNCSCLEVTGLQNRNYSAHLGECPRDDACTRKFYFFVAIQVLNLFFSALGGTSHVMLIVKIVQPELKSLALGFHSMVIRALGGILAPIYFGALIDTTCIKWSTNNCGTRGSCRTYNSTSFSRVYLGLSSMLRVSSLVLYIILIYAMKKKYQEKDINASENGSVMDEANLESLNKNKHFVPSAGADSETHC

CC(=O)NC[C@H]1CN(c2ccc(N3CCOCC3)c(F)c2)C(=O)O1 [Linezolid]
substrate for OATP1B1 (human OATP1B1): not a substrate
substrate for OATP1B3 (human OATP1B3): not a substrate
substrate for NTCP (human NTCP): not a substrate
mean recovery of linezolid radioactivity in excreta [1]: over 95%
substrate for MATE1 (MATE1): not a substrate
substrate for MATE2-K (MATE2-K): not a substrate
inhibitor of OATP2B1 (OATP2B1): inhibitor
